Tests used:
R5.24 = molecular target: T1, R5.24 (Homo sapiens, UniProt Q5T6X5); experiment: Activity assay for R5.24 receptor: stimulus-evoked changes in intracellular calcium in cells expressing R5.24; format: cell-based; details: FIG. 1 middle panels, calcium signal
T1 construct: expressed in transfected cells; host or cells: human embryonic kidney (HEK) cells containing Gα16-Gαz and/or Gα15 promiscuous G proteins
T1 sequence (Q5T6X5 19-926): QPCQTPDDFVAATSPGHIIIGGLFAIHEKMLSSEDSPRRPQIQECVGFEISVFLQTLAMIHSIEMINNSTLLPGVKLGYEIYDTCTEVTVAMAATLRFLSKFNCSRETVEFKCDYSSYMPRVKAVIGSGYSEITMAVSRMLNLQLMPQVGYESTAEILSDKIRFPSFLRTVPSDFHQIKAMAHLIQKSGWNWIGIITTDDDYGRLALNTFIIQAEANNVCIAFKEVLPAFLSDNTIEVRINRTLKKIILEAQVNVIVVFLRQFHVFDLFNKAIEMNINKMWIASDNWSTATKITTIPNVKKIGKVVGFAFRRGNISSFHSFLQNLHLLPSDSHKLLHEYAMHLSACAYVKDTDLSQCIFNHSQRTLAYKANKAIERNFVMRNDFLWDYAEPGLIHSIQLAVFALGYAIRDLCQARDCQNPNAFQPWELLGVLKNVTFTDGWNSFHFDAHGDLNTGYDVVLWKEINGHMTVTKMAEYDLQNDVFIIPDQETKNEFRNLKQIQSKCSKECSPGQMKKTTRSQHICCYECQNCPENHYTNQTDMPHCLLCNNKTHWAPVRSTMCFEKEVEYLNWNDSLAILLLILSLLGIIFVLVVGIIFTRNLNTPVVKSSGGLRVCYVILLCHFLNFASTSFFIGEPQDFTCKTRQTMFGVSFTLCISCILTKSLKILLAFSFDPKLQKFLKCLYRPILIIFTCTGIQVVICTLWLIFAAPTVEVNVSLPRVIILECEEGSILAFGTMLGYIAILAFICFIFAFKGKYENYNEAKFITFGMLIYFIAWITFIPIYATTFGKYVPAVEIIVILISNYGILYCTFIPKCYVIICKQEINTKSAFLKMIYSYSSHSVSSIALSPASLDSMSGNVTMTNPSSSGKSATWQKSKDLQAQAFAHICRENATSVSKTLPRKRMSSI
From the text: (§1) Candidate receptors are expressed in human embryonic kidney (HEK) cells containing, e.g., the Gα16-Gαz and/or Gα15 promiscuous G proteins (Offermanns et al., J. Biol. Chem. 270:15175-15180 (1995); Mody et al., Mol. Pharmacol. 57:13-23 (2000)), and assayed for stimulus-evoked changes in intracellular calcium. In this system, receptor activation leads to activation of phospholipase Cβ (PLC-β and release of calcium from internal stores, which can be monitored at the single-cell level using calcium-indicator dyes (Chandrashekar et al., Cell 100:703-711 (2000); Nelson et al., Cell 106:381-390 (2001); Tsien et al., Cell Calcium 6:145-157 (1985)).

[1] = system: cells without the receptor; experiment: Activity assay control: cells without the receptor stimulated with magnesium or manganese; format: cell-based, human; details: FIG. 1 right panels
From the text: as §1

SMILES | response of cells expressing R5.24 to stimulation (R5.24) | response of cells without the receptor to stimulation [1]
[Mg+2] [magnesium] | respond | do not respond
[Mn+2] [manganese] | respond | do not respond
